Laboratory results from ChEMBL document CHEMBL3714729, “Heterocyclic compounds for the inhibition of pask” (2012).

Key:
[1] = target: T1, PAS domain-containing serine/threonine-protein kinase (Homo sapiens, UniProt Q96RG2); assay: Inhibition of purified full-length human PASK expressed in insect cells using MBP protein substrate incubated for 10 mins before ATP addition and measured after 1 hr by kinase-Glo luminescent kinase assay
[2] = target: T1, PAS domain-containing serine/threonine-protein kinase; assay: Inhibition of purified human PASK kinase domain expressed in insect cells using MBP protein substrate incubated for 10 mins before ATP addition and measured after 1 hr by kinase-Glo luminescent kinase assay
[3] = target: T1, PAS domain-containing serine/threonine-protein kinase; assay: Inhibition of N-terminal GST-tagged human recombinant PASK kinase domain (879 to 1323 residues) expressed in insect cells using MBP protein substrate incubated for 120 mins in presence of [33P]ATP by scintillation counting based radiochemical assay
[4] = target: T1, PAS domain-containing serine/threonine-protein kinase; assay: Inhibition of human recombinant PASK using Ulight-peptide substrate incubated for 2 hrs by TR-FRET assay
[5] = target: Casein kinase II subunit alpha' (Homo sapiens, UniProt P19784); assay: Inhibition of GST-tagged full-length purified human CK2a2 using RRRDDDSDDD substrate incubated for 120 mins in presence of [33P]ATP by scintillation counting based biochemical assay
Casein kinase II subunit alpha', sequence (P19784 whole entry): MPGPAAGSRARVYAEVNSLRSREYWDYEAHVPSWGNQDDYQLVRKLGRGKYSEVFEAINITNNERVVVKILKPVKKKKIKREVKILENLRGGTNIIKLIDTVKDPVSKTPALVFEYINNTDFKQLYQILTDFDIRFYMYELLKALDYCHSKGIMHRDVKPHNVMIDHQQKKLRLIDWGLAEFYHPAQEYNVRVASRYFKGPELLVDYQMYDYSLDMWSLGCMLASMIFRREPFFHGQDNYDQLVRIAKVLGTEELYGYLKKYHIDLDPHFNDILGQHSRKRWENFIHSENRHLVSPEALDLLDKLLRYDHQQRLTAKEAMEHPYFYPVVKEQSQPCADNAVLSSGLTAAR

T1 sequence (Q96RG2 whole entry, the tested form may be a part): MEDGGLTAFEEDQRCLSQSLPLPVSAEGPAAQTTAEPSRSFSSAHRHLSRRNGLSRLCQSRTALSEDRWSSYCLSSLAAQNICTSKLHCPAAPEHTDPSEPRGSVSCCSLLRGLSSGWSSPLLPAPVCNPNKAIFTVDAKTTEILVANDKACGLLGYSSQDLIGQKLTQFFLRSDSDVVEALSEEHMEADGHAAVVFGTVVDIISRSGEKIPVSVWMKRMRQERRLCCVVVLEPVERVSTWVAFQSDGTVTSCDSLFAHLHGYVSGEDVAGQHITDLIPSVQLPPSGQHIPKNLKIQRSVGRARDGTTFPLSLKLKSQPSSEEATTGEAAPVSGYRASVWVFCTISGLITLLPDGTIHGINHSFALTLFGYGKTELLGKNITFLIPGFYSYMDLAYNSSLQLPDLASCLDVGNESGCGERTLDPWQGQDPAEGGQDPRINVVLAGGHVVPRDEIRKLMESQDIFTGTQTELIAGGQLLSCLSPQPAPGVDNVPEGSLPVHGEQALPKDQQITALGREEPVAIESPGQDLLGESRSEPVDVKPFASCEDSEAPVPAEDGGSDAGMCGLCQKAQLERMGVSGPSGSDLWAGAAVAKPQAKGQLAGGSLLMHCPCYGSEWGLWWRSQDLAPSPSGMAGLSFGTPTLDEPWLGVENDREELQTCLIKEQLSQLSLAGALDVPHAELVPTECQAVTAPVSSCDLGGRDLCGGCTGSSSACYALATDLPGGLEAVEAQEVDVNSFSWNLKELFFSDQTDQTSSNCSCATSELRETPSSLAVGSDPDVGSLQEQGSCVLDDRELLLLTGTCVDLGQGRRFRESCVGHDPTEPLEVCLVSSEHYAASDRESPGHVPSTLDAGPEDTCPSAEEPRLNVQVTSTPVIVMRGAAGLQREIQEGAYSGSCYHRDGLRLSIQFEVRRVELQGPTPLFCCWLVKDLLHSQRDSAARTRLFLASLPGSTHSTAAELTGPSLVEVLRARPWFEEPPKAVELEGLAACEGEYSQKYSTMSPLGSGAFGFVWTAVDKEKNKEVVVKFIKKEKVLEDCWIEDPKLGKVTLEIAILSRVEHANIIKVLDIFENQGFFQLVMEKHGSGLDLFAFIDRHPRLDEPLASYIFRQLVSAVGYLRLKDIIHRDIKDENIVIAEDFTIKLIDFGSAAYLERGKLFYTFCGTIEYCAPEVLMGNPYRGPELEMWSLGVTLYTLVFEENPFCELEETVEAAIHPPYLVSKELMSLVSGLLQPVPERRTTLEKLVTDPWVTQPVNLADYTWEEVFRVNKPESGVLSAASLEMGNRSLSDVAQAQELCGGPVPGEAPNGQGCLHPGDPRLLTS

Compound	IC50 [1] [µM]	IC50 [2] [µM]	IC50 [3] [µM]	IC50 [4] [µM]	IC50 [5] [µM]
Cc1nn2c(=O)cc(-c3ccc(Cl)cc3)[nH]c2c1-c1ccccc1	≤ 10	≤ 10			
O=c1cc(-c2ccc3[nH]nnc3c2)[nH]c2c(-c3cccnc3)cnn12			≤ 10	≤ 10	≤ 10
CCCNC(=O)c1cnn2c(=O)cc(-c3ccc4[nH]nnc4c3)[nH]c12			≤ 10	≤ 10	≤ 10
CCc1c(C)[nH]c2c(-c3ccc(Cl)cc3)c(C)nn2c1=O	≥ 10	≥ 10			
Cc1nn2c(=O)cc(-c3ccc4c(c3)OCO4)[nH]c2c1Cc1ccccn1			≤ 10	≤ 10	≤ 10
O=c1cc(-c2ccc3[nH]nnc3c2)[nH]c2c(-c3ccc(Cl)cc3)cnn12			≤ 10	≤ 10	≤ 10
CCCNC(=O)c1c(N)nn2c(=O)cc(-c3ccc4[nH]nc(C)c4c3)[nH]c12			≤ 10	≤ 10	≤ 10
O=c1cc(-c2ccc(-c3ncco3)cc2)[nH]c2c(-c3ccccn3)cnn12			≤ 10	≤ 10	≥ 10
COc1ccc(-c2c(Cc3ccccc3)nn3c(=O)cc(-c4ccccc4)[nH]c23)cc1	≥ 10				
CCCNC(=O)c1c(O)nn2c(=O)cc(-c3ccc4c(c3)OCO4)[nH]c12			≤ 10	≤ 10	≤ 10
COc1c(-c2cc(=O)n3ncc(-c4ccccn4)c3[nH]2)ccc2[nH]nnc12			≤ 10	≤ 10	≤ 10
Nc1nn2c(=O)cc(-c3ccc4[nH]nnc4c3)[nH]c2c1-c1ccc(Cl)cc1			≤ 10	≤ 10	≤ 10
CCCc1cc(=O)n2nc(Cc3ccccc3)c(-c3ccc(Cl)cc3)c2[nH]1	≥ 10	≥ 10			
O=c1cc(-c2ccccc2)[nH]c2c(-c3ccc(Cl)cc3)c(Cc3ccccc3)nn12	≥ 10	≥ 10			
Cc1nn2c(=O)c(C#N)c(-c3ccccc3)[nH]c2c1-c1ccccc1	≥ 10				
COc1ccc(Cc2nn3c(=O)cc(-c4ccccc4)[nH]c3c2-c2ccccc2)cc1	≥ 10	≥ 10			
N#Cc1ccc(-c2cc(=O)n3ncc(-c4ccccn4)c3[nH]2)cc1			≤ 10	≤ 10	≥ 10
O=c1cc(-c2ccc([N+](=O)[O-])cc2)[nH]c2c(-c3ccc(Cl)cc3)c(Cc3ccccc3)nn12	≤ 10	≤ 10			

Compound	IC50 [1] [µM]	IC50 [2] [µM]	IC50 [3] [µM]	IC50 [4] [µM]	IC50 [5] [µM]
Cc1nn2c(=O)cc(-c3ccc([N+](=O)[O-])cc3)[nH]c2c1-c1ccc(Cl)cc1	≤ 10	≤ 10			
COc1c(-c2cc(=O)n3nc(C)c(-c4ccccn4)c3[nH]2)ccc2c1OCO2			≤ 10	≤ 10	≤ 10
CCCNC(=O)c1c(N)nn2c(=O)cc(-c3ccc4[nH]ncc4c3)[nH]c12			≤ 10	≤ 10	≤ 10
COCc1cc(=O)n2nc(Cc3ccccc3)c(-c3ccc(Cl)cc3)c2[nH]1	≥ 10	≥ 10			
O=c1cc(-c2ccccc2)[nH]c2c(-c3ccccc3)c(Cc3ccccc3)nn12	≥ 10				
O=c1cc(-c2ccc3[nH]nnc3c2)[nH]c2c(-c3ccccn3)c(O)nn12			≤ 10	≤ 10	≤ 10
Cc1ccc(-c2cc(=O)n3nc(C)c(-c4ccccc4)c3[nH]2)cc1	≥ 10	≥ 10			
COc1ccccc1-c1cc(=O)n2nc(C)c(-c3ccccc3)c2[nH]1	≤ 10	≤ 10			
CCCc1cc(=O)n2nc(C)c(-c3ccc(Cl)cc3)c2[nH]1	≥ 10	≥ 10			
CC(=O)Nc1nn2c(=O)cc(-c3ccc4c(cnn4C)c3)[nH]c2c1-c1ccccn1			≤ 10	≤ 10	≤ 10
CCc1nn2c(=O)cc(-c3ccc4[nH]nnc4c3)[nH]c2c1-c1ccccn1			≤ 10	≤ 10	≤ 10
CCCNC(=O)c1c(N)nn2c(=O)cc(-c3ccc4[nH]nnc4c3)[nH]c12			≤ 10	≤ 10	≤ 10
Cc1cc(=O)n2nc(C)c(-c3ccc(Cl)cc3)c2[nH]1	≥ 10	≥ 10			
Cc1cc(=O)n2nc(-c3cccc(Br)c3)cc2[nH]1	≤ 10				
O=c1cc(-c2ccccc2)[nH]c2c(-c3cccc4ccccc34)c(Cc3ccccc3)nn12	≥ 10	≥ 10			
COCc1cc(=O)n2nc(-c3ccc(Cl)cc3)cc2[nH]1	≥ 10	≥ 10			
Cc1nn2c(=O)cc(-c3ccccc3)[nH]c2c1-c1ccc(Cl)cc1	≤ 10	≤ 10			
COc1ccc(-c2c(C)nn3c(=O)cc(-c4ccccc4)[nH]c23)cc1	≥ 10				

Other lines, results leading:

IC50 [1] [µM]	IC50 [2] [µM]	IC50 [3] [µM]	IC50 [4] [µM]	IC50 [5] [µM]	Compound
≥ 10	≥ 10				O=c1c2c([nH]c3c(-c4ccc(Cl)cc4)c(Cc4ccccc4)nn13)CCC2
≥ 10	≥ 10				Cc1nn2c(=O)c3c([nH]c2c1-c1ccc(Cl)cc1)CCC3
		≤ 10	≤ 10	≤ 10	O=c1cc(-c2cc3nn[nH]c3cc2F)[nH]c2c(-c3ccccn3)cnn12
≥ 10	≥ 10				O=c1cc(Cc2ccccc2)[nH]c2c(-c3ccccc3)c(-c3ccccc3)nn12
≤ 10	≤ 10				COc1ccc(-c2cc(=O)n3nc(C)c(-c4ccccc4)c3[nH]2)cc1
≥ 10					O=c1c2c([nH]c3c(-c4ccccc4)c(-c4ccccc4)nn13)CCC2
		≤ 10	≤ 10	≤ 10	CCCNC(=O)c1c(N)nn2c(=O)cc(-c3ccc4c(cnn4C)c3)[nH]c12
		≤ 10	≤ 10	≤ 10	Nc1nn2c(=O)cc(-c3ccc4[nH]nnc4c3)[nH]c2c1-c1ccccc1
≤ 10					Cc1cc(=O)n2nc(-c3ccc(Cl)cc3)cc2[nH]1
≥ 10	≥ 10				O=c1cc(Cc2ccccc2)[nH]c2c(-c3ccccc3)c(Cc3ccccc3)nn12
≥ 10	≥ 10				Cc1nn2c(=O)cc(-c3ccccc3)[nH]c2c1-c1ccc(F)cc1
		≤ 10	≤ 10	≥ 10	COc1cc2[nH]nnc2cc1-c1cc(=O)n2nc(N)c(-c3ccccn3)c2[nH]1
≥ 10	≥ 10				CCc1c(C)[nH]c2c(-c3ccccc3)c(Cc3ccc(OC)cc3)nn2c1=O
		≤ 10	≤ 10	≤ 10	CCCNC(=O)c1c(N)nn2c(=O)cc(-c3ccc(Cl)cc3)[nH]c12
≥ 10	≥ 10				COCc1cc(=O)n2nc(Cc3ccccc3)c(-c3ccc(OC)cc3)c2[nH]1
		≤ 10	≤ 10	≤ 10	COc1c(-c2cc(=O)n3nc(N)c(-c4ccccn4)c3[nH]2)ccc2c1OCO2
≤ 10	≤ 10				Cc1[nH]c2c(-c3ccc(Cl)cc3)cnn2c(=O)c1Cc1ccccc1
≥ 10	≥ 10				COc1ccc(-c2nn3c(=O)cc(C(C)C)[nH]c3c2-c2ccccc2)cc1
≥ 10	≥ 10				COc1ccc(Cc2nn3c(=O)cc(C)[nH]c3c2-c2ccccc2)cc1
		≤ 10	≤ 10	≤ 10	COc1c(-c2cc(=O)n3nc(O)c(-c4ccccn4)c3[nH]2)ccc2c1OCO2
≥ 10	≥ 10				COc1ccc(-c2c(C)nn3c(=O)cc(Cc4ccccc4)[nH]c23)cc1
≤ 10	≤ 10				COc1ccc(-c2cc(=O)n3nc(C)c(-c4ccc(F)cc4)c3[nH]2)cc1
